# Assay results reported in US6602515B2, “Photo stable organic sunscreen compounds with antioxidant properties and compositions obtained therefrom” (EM Industries, priority 2001, dated 2003).
# Legend:
# [1] = DPPH test method (antioxidant property, % reducing activity); type: biochemical; conditions: 20 minutes, 517 nm
# Protocol: A DPPH concentrate (2.5×) of 25 mg of 1,1-Diphenyl-2-Picyrl-Hydrazyl ACS# 1898-66-4 (Sigma #D-9132, lot 99H3601) dissolved in 250 mL ethanol (USP), is prepared fresh on the measurement date. A DPPH working solution is then prepared by diluting 100 mL of this concentrate to a final volume of 250 mL ([…]). A blank 13×100 mm borosilicate glass screw top tube of ethanol (USP) is used to zero the spectrometer (Milton Roy, Spectronic 20+) at 517 nm and a control tube of DPPH working solution is measured under identical conditions, and taken as 0% activity. Aliquots of the 0.25% & 0.5% (RT & 45° C.) test solution are added to tubes followed by the rapid addition of 4 mL DPPH working solution then rapidly capped and mixed. After 20 minutes, the absorbance of each sample is read at 517 nm.
# The percent reducing activity (% RA) is calculated using the following equation:
# % Reduction Activity=100 A(0)-A(20)/A(0)
# Where A(0) is the absorbance value of the DPPH working solution at 517 nm zeroed against an ethanol blank and A(20) is the absorbance at 517 nm, 20 minutes after combining the antioxidant with the DPPH working solution.
# The concentration of antioxidant (mg/ml) in the final assay mixture is calculated based on the dilution of respective aliquots of each compound in the final assay volume and % RA tabulated and plotted as percent activity at each concentration in the dilution series.
# [2] = physchem; type: physicochemical
# Protocol: Individual solutions of selected sunscreen compounds (2/1, 2/4, 2/5, 2/7 and 2/8) with Avobenzone were as follows. Each sunscreen compound was dissolved in 70% ethanol/30% H2O solution containing roughly an equal molar amount of Avobenzone. A similar solution containing Di-2-ethylhexyl-2,6-napthalene dicarboxylic acid (DENDA) and Avobenzone was also prepared. Each solution was then illuminated in the solar simulator as configured above for the photostability tests and aliquots of each solution were removed at 30-minute time intervals. These aliquots were injected into an HPLC and the loss of Avobenzone was followed with illumination time. The high performance liquid chromatograph (HPLC) used for all experiments reported therein incorporated a Spectra-Physics model P-200 pump with an Applied Biosystems model 785A UV-Visible detector with a Rheodyne manual injector incorporating a […] sample loop and a 150×4.6 mm reversed-phase C18 column (Alltech). All analyses were carried out under isocratic elution conditions using CH3OH/H2O mixtures for the mobile phase at a flow rate of […] per minute. It was necessary to employ HPLC separation of Avobenzone from each of the sunscreen compounds to quantify Avobenzone due to the absorption spectra overlap with some of these compounds.
# [3] = Absorbance and molar absorptivity of sunscreen compounds; type: physicochemical; conditions: for ελMax / λMax: 70% ethanol/30% H2O solution; for molar absorption compared to Avobenzone: 70% ethanol and 30% isopropyl myristate
# Protocol: Each exploratory sunscreen compound was dissolved in 70% ethanol/30% isopropyl myristate and/or 70% ethanol/30% water and the UV visible absorption spectrum measured with a Shimadza UV 2101-double beam spectrophotometer using the solvent as reference. A similar solution of Octocrylene was prepared and the UV-visible absorption spectrum measured. Each solution was then illuminated for two hours in the solar simulator. After illumination, the absorption spectrum was again measured each solution. […]
# [4] = Photostability, 2 hours illumination in Xe arc solar simulator, UV-visible absorption spectrum; type: physicochemical; conditions: for photostability compared to Octocrylene: 2 hours of illumination in the solar simulator
# From the text: The solar simulator used for illumination of the samples in the experiments was constructed incorporating a 1 kw Xe arc lamp, optical bench and sample illumination chamber. The lamp output was filtered through a water filter with a course window to remove most of the infrared radiation and optical filters to remove wavelengths below 290 nm. The output of the illumination system was focused onto the face of a 1 cm quartz Cuvette that was thermally equilibrated with a constant temperature water bath at 25 ° C. A magnetic stir was mounted under the Cuvette so that the samples could be stirred while being illuminated. An electric shutter was controlled by a dark room timer to provide precise control of illumination times. The solar simulator was constructed to provide illumination that closely matches terrestrial sunlight. The solar simulator delivered roughly 250 J/cm^2 over a 2-hour period of illumination in a 290-490 nm range. This irradiance was determined using two nitrobenzaldehyde chemical actinometry. The irradiance is much higher than other solar simulator systems which typically illuminate a large area in order to illuminate many samples simultaneously rather than being focused down to a very small area. Each exploratory sunscreen compound was dissolved in 70% ethanol/30% isopropyl myristate and/or 70% ethanol/30% water and the UV visible absorption spectrum measured with a Shimadza UV 2101-double beam spectrophotometer using the solvent as reference. A similar solution of Octocrylene was prepared and the UV-visible absorption spectrum measured. Each solution was then illuminated for two hours in the solar simulator. After illumination, the absorption spectrum was again measured each solution.
# [5] = 0.028 mg/ml in final assay mixture
# [6] = 0.056 mg/ml in final assay mixture
# [7] = 0.139 mg/ml in final assay mixture
# [8] = 0.278 mg/ml in final assay mixture
# [9] = 2.500 mg/ml in final assay mixture
# [10] = after 2 hours of illumination in the solar simulator
ελMax [3],λMax [3],"photostability (retention of absorptivity), in words [4, 10]",molar absorption compared to Avobenzone [3],stability compared to Avobenzone [4],"absorption after illumination relative to the initial value ([4]; 2 hour period of illumination, not precise)",half-life [2],"loss of absorbance [4, 10]",Compound,"% Reducing Activity [1, 5]","% Reducing Activity [1, 6]","% Reducing Activity [1, 7]","% Reducing Activity [1, 8]","% Reducing Activity [1, 9]","stabilization of Avobenzone, compared with DENDA [2]",photostability compared to Octocrylene [4]
19000 M⁻¹ cm⁻¹,348 nm,retain most of their absorptivity,lower molar absorption than Avobenzone,appear to be more stable than Avobenzone,,,,"CCOC(=O)C(=Cc1cc(OC)c(O)c(OC)c1)C(C)=O [2/5, ethyl-alpha-acetyl-3,5-dimethoxy-4-hydroxy cinnamate]",20.7%,31.0%,47.3%,59.9%,,somewhat less effective than DENDA,comparable photo stabilities to Octocrylene
16000 M⁻¹ cm⁻¹,340 nm,,,,approximately 82%,,,"CCCCC(CC)COC(=O)C(=Cc1cc(OC)c(O)c(OC)c1)C(=O)OCC(CC)CCCC (stereo not shown) [2/8, di(2-ethyl-hexyl)-3,5-dimethoxy-4-hydroxy benzylidene malonate]",8.5%,13.0%,23.2%,33.7%,,appear to stabilize Avobenzone as effectively as DENDA,
25000 M⁻¹ cm⁻¹,360 nm,,,,,~3 h,,"COc1ccc(C(=O)CC(=O)c2ccc(C(C)(C)C)cc2)cc1 [Avobenzone, reference compound]",,,,,,,
,314 nm,,,,,,72%,"CCOC(=O)C(C)=Cc1cc(OC)c(O)c(OC)c1 [2/7, ethyl-alpha-methyl-3,5-dimethoxy-4-hydroxy cinnamate]",46.1%,61.2%,77.3%,85.0%,,,
,,no loss in absorptivity,,,,,,"CCCCC(CC)COC(=O)C(C#N)=C(c1ccccc1)c1ccccc1 (stereo not shown) [Octocrylene, reference compound]",,,,,,,

# The remaining lines, values behind:
Compound,ελMax [3],λMax [3],"photostability (retention of absorptivity), in words [4, 10]",molar absorption compared to Avobenzone [3],stability compared to Avobenzone [4],"absorption after illumination relative to the initial value ([4]; 2 hour period of illumination, not precise)",half-life [2],"loss of absorbance [4, 10]","% Reducing Activity [1, 5]","% Reducing Activity [1, 6]","% Reducing Activity [1, 7]","% Reducing Activity [1, 8]","% Reducing Activity [1, 9]","stabilization of Avobenzone, compared with DENDA [2]",photostability compared to Octocrylene [4]
"CCOC(=O)C(C#N)=Cc1cc(OC)c(O)c(OC)c1 [2/3, ethyl-alpha-cyano-3,5-dimethoxy-4-hydroxy cinnamate]",,,,,,,,,5.2%,8.4%,11.3%,15.5%,25.40%,,
"COc1cc(C=C(C(=O)OCCC(C)C)C(=O)OCCC(C)C)cc(OC)c1O [2/10, di-iso-amyl-3,5-dimethoxy-4-hydroxy benzylidene malonate]",,,,,,,,,10.2%,14.6%,22.3%,30.1%,,,
"CCCCC(CC)COC(=O)c1ccc2cc(C(=O)OCC(CC)CCCC)ccc2c1 (stereo not shown) [DENDA, Di-2-ethylhexyl-2,6-napthalene dicarboxylic acid, reference compound]",,,,,,,,,,,,,,Initially the loss of Avobenzone was quite rapid but then seemed to become stable,
"CCOC(=O)C(=Cc1cc(OC)c(OC)c(OC)c1)C(=O)OCC [2/1, diethyl-3,4,5-trimethoxy benzylidene malonate, reference compound]",20000 M⁻¹ cm⁻¹,313 nm,retain most of their absorptivity,,,,,,,,,,0.0%,appear to stabilize Avobenzone as effectively as DENDA,comparable photo stabilities to Octocrylene
"CCOC(=O)C(C#N)=Cc1cc(OC)c(OC)c(OC)c1 [2/2, ethyl-alpha-cyano-3,4,5-trimethoxy cinnamate, reference compound]",,,,,,,,,,,,,3%,,
"CCOC(=O)C(=Cc1cc(OC)c(O)c(OC)c1)C(=O)OCC [2/4, diethyl-3,5-dimethoxy-4-hydroxy benzylidene malonate]",12000 M⁻¹ cm⁻¹,338 nm,retain most of their absorptivity,lower molar absorption than Avobenzone,appear to be more stable than Avobenzone,,,,5.2%,12.8%,29.51%,33.4%,71.70%,appear to stabilize Avobenzone as effectively as DENDA,comparable photo stabilities to Octocrylene
